# Test results reported in ChEMBL document CHEMBL4350994, “Andrographolide: A natural product template for the generation of structurally and biologically diverse diterpenes” (Eur J Med Chem, 2019).
# What was measured:
# [1] = tested on: NCI/ADR-RES; assay: Growth inhibition of human MCF7/ADR cells; format: functional
# [2] = tested on: U-251; assay: Growth inhibition of human U251 cells; format: functional
# [3] = tested on: SW-620; assay: Growth inhibition of human SW620 cells; format: functional
# [4] = tested on: SK-OV-3; assay: Growth inhibition of human SKOV3 cells; format: functional
# [5] = tested on: DU-145; assay: Growth inhibition of human DU145 cells; format: functional
# [6] = tested on: A498; assay: Growth inhibition of human A498 cells; format: functional
# [7] = tested on: MCF7; assay: Growth inhibition of human MCF7 cells; format: functional
# [8] = Growth inhibition of human OVCAR1 cells; format: functional
# [9] = biological target: T1, Bile acid receptor (Homo sapiens, UniProt Q96RI1); assay: Antagonist activity at FXR (unknown origin)
# T1 sequence (Q96RI1 whole entry): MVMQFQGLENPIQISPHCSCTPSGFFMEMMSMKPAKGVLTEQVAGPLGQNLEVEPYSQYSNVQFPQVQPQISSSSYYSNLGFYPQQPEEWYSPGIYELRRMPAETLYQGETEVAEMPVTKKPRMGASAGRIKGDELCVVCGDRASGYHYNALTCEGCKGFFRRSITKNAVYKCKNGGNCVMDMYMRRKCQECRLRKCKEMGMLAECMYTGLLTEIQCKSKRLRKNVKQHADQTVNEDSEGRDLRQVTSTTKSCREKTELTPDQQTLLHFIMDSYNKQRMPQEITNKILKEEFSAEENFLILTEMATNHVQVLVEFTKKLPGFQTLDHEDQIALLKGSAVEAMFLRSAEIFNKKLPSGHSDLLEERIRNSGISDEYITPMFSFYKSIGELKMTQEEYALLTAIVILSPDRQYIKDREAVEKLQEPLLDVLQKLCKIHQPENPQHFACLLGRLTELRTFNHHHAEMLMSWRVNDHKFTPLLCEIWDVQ
# [10] = Cytotoxicity against human KKU-M213 cells assessed as reduction in cell viability after 24 hrs by MTT assay; format: functional, cell-based; conditions: KKU-M213, 24 h
# [11] = Antiviral activity against H9N2 subtype infected in MDCK cells after 2 to 3 days; format: functional, cell-based; conditions: Influenza A virus
# [12] = tested on: H5N1 subtype; assay: Antiviral activity against H5N1 subtype infected in MDCK cells after 2 to 3 days; format: functional, organism-based; conditions: Influenza A virus
# [13] = Selectivity index, ratio of CC50 for MDCK cells to EC50 for H9N2 subtype
# [14] = Antiviral activity H1N1 subtype infected in MDCK cells after 2 to 3 days; format: functional, cell-based; conditions: Influenza A virus
# [15] = Selectivity index, ratio of CC50 for MDCK cells to EC50 for H5N1 subtype
# [16] = Selectivity index, ratio of CC50 for MDCK cells to EC50 for H1N1 subtype
# [17] = biological target: T1, Bile acid receptor; assay: Antagonist activity at Gal4 DBD-fused human FXR LBD expressed in human HepG2 cells after 8 hrs by luciferase reporter gene assay; format: cell-based
# [18] = tested on: Mus musculus; assay: Hypoglycemic activity in db/db mouse assessed as decrease in blood glucose level at 100 mg/kg administered daily for 6 days relative to control; format: functional; set-up: scale not given: the % may be the effect or the level left
# [19] = tested on: Mus musculus; assay: Decrease in plasma triglycerides level in db/db mouse at 100 mg/kg administered daily for 6 days relative to control; format: functional; set-up: scale not given: the % may be the effect or the level left
# [20] = tested on: Rattus norvegicus; assay: Hypoglycemic activity in diabetic rat assessed as decrease in blood glucose level at 150 mg/kg after 24 hrs relative to control; format: functional; set-up: scale not given: the % may be the effect or the level left
smiles,measurement,setting,value
CCC(=O)OC[C@@]1(C)[C@H]2CC[C@@]3(CO3)[C@@H](C/C=C3/C(=O)OC[C@H]3OC(=O)/C=C/c3ccc(OC)c(OC)c3)[C@]2(C)CC[C@H]1OC(=O)CC,GI50,[1],400 to 7500 nM
same,GI50,[2],400 to 7500 nM
same,GI50,[3],400 to 7500 nM
same,GI50,[4],400 to 7500 nM
same,GI50,[5],400 to 7500 nM
same,GI50,[6],400 to 7500 nM
CCC(=O)OC[C@@]1(C)[C@H]2CC[C@@]3(CO3)[C@@H](C/C=C3/C(=O)OC[C@H]3OC(=O)/C=C/c3ccccc3)[C@]2(C)CC[C@H]1OC(=O)CC,GI50,[1],80 to 6000 nM
same,GI50,[2],80 to 6000 nM
same,GI50,[3],80 to 6000 nM
same,GI50,[4],80 to 6000 nM
same,GI50,[5],80 to 6000 nM
same,GI50,[6],80 to 6000 nM
C[C@]1(CO)[C@H]2CC[C@@]3(CO3)[C@@H](C/C=C3/C(=O)OC[C@H]3OC(=O)/C=C/c3ccccc3)[C@]2(C)CC[C@H]1O,GI50,[1],500 to 9000 nM
same,GI50,[2],500 to 9000 nM
same,GI50,[3],500 to 9000 nM
same,GI50,[4],500 to 9000 nM
same,GI50,[5],500 to 9000 nM
same,GI50,[6],500 to 9000 nM
CC(=O)OC[C@@]1(C)[C@H]2CC[C@@]3(CO3)[C@@H](C/C=C3/C(=O)OC[C@H]3OC(C)=O)[C@]2(C)CC[C@H]1OC(C)=O,GI50,[1],250 to 5000 nM
same,GI50,[2],250 to 5000 nM
same,GI50,[3],250 to 5000 nM
same,GI50,[4],250 to 5000 nM
same,GI50,[5],250 to 5000 nM
same,GI50,[6],250 to 5000 nM
C=C1CC[C@@H]2[C@](C)(COC(C)=O)[C@H](OC(C)=O)CC[C@@]2(C)[C@@H]1CC(C1=CCOC1=O)n1cc(I)c(=O)[nH]c1=O (some centres not stated),GI50,[1],2000 nM
same,GI50,[2],2000 nM
same,GI50,[7],2000 nM
same,GI50,[8],2000 nM
C=C1CC[C@@H]2[C@]3(C)COC(C)(c4ccccc4)O[C@@H]3CC[C@@]2(C)[C@@H]1CC(NC(Cc1ccccc1)C(=O)OC)C1=CCOC1=O (some centres not stated),GI50,[8],1400 nM
C=C1CC[C@@H]2[C@](C)(CO)[C@H](O)CC[C@@]2(C)[C@@H]1C/C=C1/C(=O)OC[C@H]1OC(=O)c1ccccc1,GI50,[2],1500 nM
C=C1CC[C@@H]2[C@](C)(COC(C)=O)[C@H](OC(C)=O)CC[C@@]2(C)[C@@H]1C/C=C1/C(=O)OC[C@H]1OC(=O)CNC(C)=O,GI50,[2],1500 nM
C=C1CC[C@@H]2[C@](C)(CO)[C@H](O)CC[C@@]2(C)[C@@H]1C/C=C/c1cccc(Cl)c1,GI50,[5],2000 to 27000 nM
CC(=O)OC[C@@]1(C)[C@H]2CC[C@@]3(CO3)[C@@H](CC(Sc3ccccc3)C3=CCOC3=O)[C@]2(C)CC[C@H]1OC(C)=O (some centres not stated),GI50,[5],2000 nM
C=C1CC[C@@H]2[C@](C)(CO)[C@H](O)CC[C@@]2(C)[C@@H]1C/C=C/c1ccccc1,GI50,[5],2000 to 27000 nM
CCC(=O)OC[C@@]1(C)[C@H]2CC[C@@]3(CO3)[C@@H](C/C=C3/C(=O)OC[C@H]3OC(=O)/C=C/c3cccc(OC)c3)[C@]2(C)CC[C@H]1OC(=O)CC,GI50,[1],600 to 4800 nM
same,GI50,[2],600 to 4800 nM
same,GI50,[3],600 to 4800 nM
same,GI50,[4],600 to 4800 nM
same,GI50,[5],600 to 4800 nM
same,GI50,[6],600 to 4800 nM
C=C1CC[C@@H]2[C@](C)(CO)[C@H](O)CC[C@@]2(C)[C@@H]1C/C=C1/C(=O)OC[C@@H]1Oc1ccccc1OC,IC50,[9],550 to 2000 nM
C=C1CC[C@@H]2[C@]3(C)COC(C)(C)O[C@@H]3CC[C@@]2(C)[C@@H]1C/C=C1/C(=O)OC[C@@H]1Oc1ccc([N+](=O)[O-])cc1OC,IC50,[9],550 to 2000 nM
C=C1CC[C@@H]2[C@](C)(CO)[C@H](O)CC[C@@]2(C)[C@@H]1C/C=C/c1ccc(F)cc1,GI50,[5],2000 to 27000 nM
C=C1CC[C@@H]2[C@](C)(CO)[C@H](O)CC[C@@]2(C)[C@@H]1C/C=C1/SC(=O)NC1=O,GI50,[5],780 nM
C=C1CC[C@@H]2[C@]3(C)COC(C)(C)O[C@@H]3CC[C@@]2(C)[C@@H]1Cc1cc(=O)[nH]c(N)n1,GI50,[5],200 nM
CC(C)(C)[Si](OC[C@@]1(C)[C@H]2CC[C@@]3(CO3)[C@@H](C/C=C3/C(=O)OC[C@H]3O)[C@]2(C)CC[C@H]1O)(c1ccccc1)c1ccccc1,IC50,[10],8000 nM
C=C1CC[C@@H]2[C@](C)(CO)[C@H](O)CC[C@@]2(C)[C@@H]1C/C=C1/C(=O)OC[C@H]1OC(=O)Nc1ccccc1,GI50,[1],400 nM
C=C1CC[C@@H]2[C@]3(C)COC(C)(c4ccccc4)O[C@@H]3CC[C@@]2(C)[C@@H]1CC(C1=CCOC1=O)N1CCCC1C(=O)OC (some centres not stated),GI50,[8],1000 nM
C=C1CC[C@@H]2[C@](C)(CO)[C@H](O)CC[C@@]2(C)[C@@H]1C/C=C1/C(=O)OC[C@H]1OC(=O)CCCCC1CCSS1 (some centres not stated),EC50,[11],7200 to 15200 nM
same,EC50,[12],7200 to 15200 nM
same,Selectivity Index,[13],51 - 109
same,EC50,[14],7200 to 15200 nM
same,Selectivity Index,[15],51 - 109
same,Selectivity Index,[16],51 - 109
C=C1CC[C@@H]2[C@](C)(CO)[C@H](O)CC[C@@]2(C)[C@@H]1C/C=C1/C(=O)OC[C@H]1O [ANDROGRAPHOLIDE],IC50,[17],9700 nM
same,GI50,[1],3000 to 20000 nM
same,GI50,[2],3000 to 20000 nM
same,GI50,[3],3000 to 20000 nM
same,GI50,[4],3000 to 20000 nM
same,GI50,[5],3000 to 20000 nM
same,GI50,[6],3000 to 20000 nM
same,GI50,[7],3000 to 20000 nM
same,GI50,[8],3000 to 20000 nM
same,Activity,[18],64%
same,Activity,[19],54%
same,IC50,[9],9700 nM
COc1ccc(Cl)cc1C(=O)NCCc1ccc(S(=O)(=O)NC(=O)NC2CCCCC2)cc1 [GLYBURIDE],Activity,[20],62.02%
